Source: patent US8816090B2, “Benzisoxazole derivatives” (Pfizer Inc., priority 2005, dated 2014)
Where a name gives a salt, the structure may show the parent alone.

Experiments:
Human 5-HT4(d) = molecular target: T1, Human 5-HT4(d) (Homo sapiens, UniProt Q13639); assay: Agonist-induced cAMP elevation in human 5-HT4(d) transfected HEK293 cells; format: cell-based; details: for Emax: HEK293, cAMP production normalized to the amount produced by 1,000 nM serotonin; for EC50: cAMP elevation (HTRF), human 5-HT4(d) transfected HEK293 cells
T1 construct: expressed in transfected cells
Protocol: Human 5-HT4(d) transfected HEK293 cells were established in-house. The cells were grown at 37° C. and 5% CO2 in DMEM supplemented with 10% FCS, 20 mM HEPES (pH 7.4), 200 μg/ml hygromycin B (Gibco), 100 units/ml penicillin and 100 μg/ml streptomycin.
The cells were grown to 60-80% confluence. On the previous day before treatment with compounds dialyzed FCS (Gibco) was substituted for normal and the cells were incubated overnight.
Compounds were prepared in 96-well plates (12.5 μl/well). The cells were harvested with PBS/1 mM EDTA, centrifuged and washed with PBS. At the beginning of the assay, cell pellet was resuspended in DMEM supplemented with 20 mM HEPES, 10 μM pargyline (Sigma) and 1 mM 3-isobutyl-1-methylxanthine (Sigma) at the concentration of 1.6×10^5 cells/ml and left for 15 min at room temperature. The reaction was initiated by addition of the cells into plates (12.5 μl/well). After incubation for 15 min at room temperature, 1% Triton X-100 was added to stop the reaction (25 μl/well) and the plates were left for 30 minutes at room temperature. Homogenous time-resolved fluorescence-based cAMP (Schering) detection was made according to the manufacturer's instruction. ARVOsx multilabel counter (Wallac) was used to measure HTRF (excitation 320 nm, emission 665 nm/620 nm, delay time 50 μs, window time 400 μs).
Data was analyzed based on the ratio of fluorescence intensity of each well at 620 nm and 665 nm followed by cAMP quantification using cAMP standard curve. Enhancement of cAMP production elicited by each compound was normalized to the amount of cAMP produced by 1,000 nM serotonin (Sigma).

T1 sequence (Q13639 1-360 isoform Q13639-3): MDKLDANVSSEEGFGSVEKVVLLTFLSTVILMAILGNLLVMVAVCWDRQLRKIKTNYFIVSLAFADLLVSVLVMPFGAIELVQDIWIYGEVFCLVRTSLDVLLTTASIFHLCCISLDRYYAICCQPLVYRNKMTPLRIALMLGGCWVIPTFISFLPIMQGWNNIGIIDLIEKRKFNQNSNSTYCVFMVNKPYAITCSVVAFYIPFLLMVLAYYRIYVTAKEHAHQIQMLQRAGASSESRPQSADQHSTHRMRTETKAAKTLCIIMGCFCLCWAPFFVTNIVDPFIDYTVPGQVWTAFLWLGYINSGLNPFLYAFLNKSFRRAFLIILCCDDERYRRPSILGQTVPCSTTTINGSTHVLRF

Row | Compound | Emax (Human 5-HT4(d)) [%] | EC50 (Human 5-HT4(d)) [nM] | melting point [°C]
1 | O=C(O)C1(CN2CCC(COc3noc4cccc(O[C@H]5CCC[C@@H]5O)c34)CC2)CCCC1 (relative stereo) [Example 33, 1-({4-[({4-[(trans-2-Hydroxycyclopentyl)oxy]-1,2-benzisoxazol-3-yl}oxy)methyl]piperidin-1-yl}methyl)cyclopentanecarboxylic acid] | 51 | 3.3 | 
2 | O=C(O)C1(CN2CCC(COc3noc4cccc(O[C@H]5CCC[C@@H]5O)c34)CC2)CCC1 (relative stereo) [Example 34, 1-({4-[({4-[(trans-2-Hydroxycyclopentyl)oxy]-1,2-benzisoxazol-3-yl}oxy)methyl]piperidin-1-yl}-methyl)cyclobutanecarboxylic acid] | 46 | 2.7 | 
3 | CO[C@@H]1CCC[C@@H]1Oc1cccc2onc(OCC3CCN(CC4(O)CCOCC4)CC3)c12 (relative stereo) [Example 37, 4-({4-[({4-[(cis-2-Methoxycyclopentyl)oxy]-1,2-benzisoxazol-3-yl}oxy)methyl]piperidin-1-yl}methyl)-tetrahydro-2H-pyran-4-ol and its oxalate salt] | 50 | 8.8 | 
4 | O[C@H]1CCCC[C@H]1Oc1cccc2onc(OCC3CCN(CC4(O)CCOCC4)CC3)c12 (relative stereo) [Example 40, 4-({4-[({4-[(cis-2-Hydroxycyclohexyloxyl)oxy]-1,2-benzisoxazol-3-yl]oxy)methyl}piperidin-1-yl}-methyl)tetrahydro-2H-pyran-4-ol] | 42 | 16 | 125.2
5 | O=C(O)C1(CCN2CCC(COc3noc4cccc(OCC(F)(F)F)c34)CC2)CCOCC1 [Example 5, 4-{2-[4-({[4-(2,2,2-Trifluoroethoxy)-1,2-benzisoxazol-3-yl]oxy}methyl)piperidin-1-yl]ethyl}tetrahydro-2H-pyran-4-carboxylic acid] | 70 | 2.7 | 220.5
6 | O=C(O)C(F)(F)CN1CCC(COc2noc3cccc(OCC(F)(F)F)c23)CC1 [Example 6, 2,2-Difluoro-3-[4-({[4-(2,2,2-trifluoroethoxy)-1,2-benzisoxazol-3-yl]oxy}methyl)-piperidin-1-yl]propanoic acid] | 30 | 20 | 227.1
7 | CC(C)COc1cccc2onc(OCC3CCN(CC4(O)CCOCC4)CC3)c12 [Example 8, 1-[(4-Hydroxytetrahydro-2H-pyran-4-yl)methyl]-4-{[(4-isobutoxy-1,2-benzisoxazol-3-yl)oxy]methyl}-piperidinium and its p-toluenesulfonate salt] | 39 | 2.6 | 
8 | O=C(O)C1(CCN2CCC(COc3noc4cccc(OC5CCCC5)c34)CC2)CCOCC1 [Example 25, 4-{2-[4-({[4-(Cyclopentyloxy)-1,2-benzisoxazol-3-yl]oxy}methyl)piperidin-1-yl]ethyl}tetrahydro-2H-Pyran-4-carboxylic acid] | 41 | 3 | 
9 | O=C(O)C1(CN2CCC(COc3noc4cccc(OC5CCOCC5)c34)CC2)CCOCC1 [Example 27, 4-{[4-({[4-(Tetrahydro-2H-pyran-4-yloxy)-1,2-benzisoxazol-3-yl]oxy}methyl)piperidin-1-yl]methyl}-tetrahydro-2H-pyran-4-carboxylic acid] | 71 | 11 | 
10 | OC1(CN2CCC(COc3noc4cccc(O[C@H]5CC[C@H](O)CC5)c34)CC2)CCOCC1 [Example 41, 4-({4-[({4-[(trans-4-Hydroxycyclohexyl)oxy]-1,2-benzisoxazol-3-yl}oxy)methyl]piperidin-1-yl}-methyl)tetrahydro-2H-pyran-4-ol] | 44 | 3 | 
11 | O=C(O)C1(CN2CCC(COc3noc4cccc(O[C@H]5CC[C@H](O)CC5)c34)CC2)CCOCC1 [Example 42, 4-({4-[({4-[(trans-4-Hydroxycyclohexyl)oxy]-1,2-benzisoxazol-3-yl}oxy)methyl]piperidin-1-yl}-methyl)tetrahydro-2H-pyran-4-carboxylic acid] | 67 | 18 | 
12 | O=C(O)C1(CN2CCC(COc3noc4cccc(O[C@H]5CC[C@@H](O)CC5)c34)CC2)CCOCC1 [Example 43, 4-({4-[({4-[(cis-4-Hydroxycyclohexyl)oxy]-1,2-benzisoxazol-3-yl}oxy)methyl]piperidin-1-yl}methyl)-tetrahydro-2H-pyran-4-carboxylic acid] | 49 | 3.3 | 
13 | O=C(O)[C@H]1CC[C@H](CN2CCC(COc3noc4cccc(O[C@H]5CC[C@@H](CO)CC5)c34)CC2)CC1 [Example 47, trans-4-[(4-{[(4-{[cis-4-(Hydroxymethyl)cyclohexyl]oxy}-1,2-benzisoxazol-3-yl)oxy]methyl}-Piperidin-1-yl)methyl]cyclohexanecarboxylic acid] | 71 | 5.3 | 
14 | O=C(O)C1(CN2CCC(COc3noc4cccc(OCC5(CO)CCC5)c34)CC2)CCOCC1 [Example 49, 4-[(4-{[(4-{[1-(Hydroxymethyl)cyclobutyl]methoxy}-1,2-benzisoxazol-3-VI)oxy]methyl}piperidin-1-yl)methyl]tetrahydro-2H-pyran-4-carboxylic acid] | 40 | 65 | 
15 | O=C(O)C1(CN2CCC(COc3noc4cccc(OCC5(CO)CCCC5)c34)CC2)CCOCC1 [Example 51, 4-[(4-{[(4-{[1-(Hydroxymethyl)cyclopentyl]methoxy}-1,2-benzisoxazole-3-yl)oxy]methyl}piperidin-1-yl)methyl]tetrahydro-2H-pyran-4-carboxylic acid] | 33 | 27 | 
16 | O=C(O)C1(CN2CCC(COc3noc4cccc(OCC5(CO)CCCC5)c34)CC2)CCC1 [Example 52, 1-[(4-{[(4-{[1-(Hydroxymethyl)cyclopentyl]methoxy}-1,2-benzisoxazol-3-yl)oxy]methyl}piperidin-1-yl)methyl]cyclobutanecarboxylic acid] | 41 | 30 | 

Compounds with a lower EC50 (Human 5-HT4(d)), results first:

Row | Emax (Human 5-HT4(d)) [%] | EC50 (Human 5-HT4(d)) [nM] | melting point [°C] | Compound
17 | 52 | 1.9 | 140.8 | O[C@@H]1CCC[C@@H]1Oc1cccc2onc(OCC3CCN(CC4(O)CCOCC4)CC3)c12 (relative stereo) [Example 36, 4-({4-[({4-[(cis-2-Hydroxycyclopentyl)oxy]-1,2-benzisoxazol-3-yl}oxy)methyl]piperidin-1-yl}methyl)-tetrahydro-2H-pyran-4-ol]
18 | 40 | 1.6 |  | O[C@H]1CCC[C@@H]1Oc1cccc2onc(OCC3CCN(CC4(O)CCOCC4)CC3)c12 (relative stereo) [Example 32, 4-({4-[({4-[(trans-2-Hydroxycyclopentyl)oxy]-1,2-benzisoxazol-3-yl}oxy)methyl]piperidin-1-yl}-methyl)tetrahydro-2H-pyran-4-ol]
19 | 69 | 1.5 |  | O=C(O)C1(CN2CCC(COc3noc4cccc(OCC(F)(F)F)c34)CC2)CCOCC1 [Example 1, 4-{[4-({[4-(2,2,2-Trifluoroethoxy)-1,2-benzisoxazol-3-yl]oxy}methyl)piperidin-1-yl]methyl}tetrahydro-2H-pyran-4-carboxylic acid]
20 | 56 | 1.4 |  | CO[C@H]1CCC[C@@H]1Oc1cccc2onc(OCC3CCN(CC4(O)CCOCC4)CC3)c12 (relative stereo) [Example 35, 4-({4-[({4-[(trans-2-Methoxycyclopentyl)oxy]-1,2-benzisoxazol-3-yl}oxy)methyl]piperidin-1-yl}-methyl)tetrahydro-2H-pyran-4-ol and its 4-methylbenzenesulfonate]
21 | 56 | 1.3 |  | O[C@H]1CC[C@H](Oc2cccc3onc(OCC4CCN(CC5(O)CCOCC5)CC4)c23)C1 (relative stereo) [Example 39, 4-({4-[({4-[(trans-3-Hydroxycyclopentyl)oxy]-1,2-benzisoxazol-3-yl}oxy)methyl]piperidin-1-yl}methyl)tetrahydro-2H-pyran-4-ol]
22 | 77 | 1.2 | 158 | O=C(O)[C@H]1CC[C@H](CN2CCC(COc3noc4cccc(OCC(F)(F)F)c34)CC2)CC1 [Example 4, trans-4-{[4-({[4-(2,2,2-Trifluoroethoxy)-1,2-benzisoxazol-3-yl]oxy}methyl)-piperidin-1-yl]methyl}cyclohexanecarboxylic acid]
23 | 34 | 0.69 | 129.2 | CC(C)(CN1CCC(COc2noc3cccc(OCC(F)(F)F)c23)CC1)C(=O)O [Example 3, 2,2-Dimethyl-3-[4-({[4-(2,2,2-trifluoroethoxy)-1,2-benzisoxazol-3-yl]oxy}methyl)-piperidin-1-yl]propanoic acid]
24 | 47 | 0.51 | 164.9 | O=C(O)C1(CN2CCC(COc3noc4cccc(OCC(F)(F)F)c34)CC2)CCC1 [Example 2, 1-{[4-({[4-(2,2,2-Trifluoroethoxy)-1,2-benzisoxazol-3-yl]oxy}methyl)piperidin-1-yl]methyl}-cyclobutanecarboxylic acid]
